From patent US11746100B2 (GLOBAL BLOOD THERAPEUTICS, INC., priority 2020, dated 2023)

Target: T1, human ferroportin (Homo sapiens, UniProt Q9NP59)
T1 construct: luciferase reporter (read with the Nano-Glo Luciferase Assay System); expressed in transfected cells; host or cells: CHO cells, stably transfected, expression induced with doxycycline
T1 sequence (Q9NP59 1-571): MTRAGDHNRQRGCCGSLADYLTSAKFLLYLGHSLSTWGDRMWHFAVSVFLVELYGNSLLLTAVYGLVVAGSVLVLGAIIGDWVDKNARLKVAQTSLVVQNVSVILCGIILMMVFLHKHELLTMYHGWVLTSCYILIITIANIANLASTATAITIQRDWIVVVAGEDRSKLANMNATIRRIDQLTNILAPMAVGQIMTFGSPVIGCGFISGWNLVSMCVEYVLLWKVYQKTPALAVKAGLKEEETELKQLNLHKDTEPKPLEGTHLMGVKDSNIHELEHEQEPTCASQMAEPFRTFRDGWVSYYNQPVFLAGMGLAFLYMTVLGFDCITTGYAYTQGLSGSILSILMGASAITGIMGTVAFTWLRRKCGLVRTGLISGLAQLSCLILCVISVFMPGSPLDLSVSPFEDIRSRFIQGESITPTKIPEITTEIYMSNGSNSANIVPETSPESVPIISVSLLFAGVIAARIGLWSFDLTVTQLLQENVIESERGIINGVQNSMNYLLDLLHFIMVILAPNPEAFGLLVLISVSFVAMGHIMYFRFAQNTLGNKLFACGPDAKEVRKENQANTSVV
Assay: Biological in-vitro ferroportin internalization assay (luciferase reporter)
Format: cell-based
Conditions: average pEC50; stably-transfected CHO cell line expressing human ferroportin tagged to a luciferase reporter; 6 h incubation with test compound
How it was run: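 Read-out is Nano-Glo luciferase signal after 6 h compound exposure, with average pEC50 derived. Cells are a stable CHO line carrying luciferase-tagged human ferroportin, pre-loaded 24 h with ferric ammonium citrate and doxycycline-induced for 24 h.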

With `CN(CC(=O)NC(C)(C)C)c1nc(-c2cc(CO)ccn2)nc2c1CCC2` [Compound 41, N-tert-butyl-2-({2-[4-(hydroxymethyl)pyridin-2-yl]-5H,6H,7H-cyclopenta[d]pyrimidin-4-yl}(methyl)amino)acetamide] the pEC50 was 7.3.
In the case of `C[C@@H](O)COc1ccnc(-c2nc3c(c(N(C)CC(=O)NC4(C)CCC4)n2)CCC3)c1` [Compound 377, 2-[(2-{4-[(2R)-2-hydroxypropoxy]pyridin-2-yl}-5H,6H,7H-cyclopenta[d]pyrimidin-4-yl)(methyl)amino]-N-(1-methylcyclobutyl)acetamide], the pEC50 is reported as 7.8.
Work on `CN(CC(=O)NC(C)(C)C)c1nc(-c2cc(OCC(O)C(F)(F)F)ccn2)nc2c1CCC2` (stereo not drawn) [Compound 426, N-tert-butyl-2-[methyl({2-[4-(3,3,3-trifluoro-2-hydroxypropoxy)pyridin-2-yl]-5H,6H,7H-cyclopenta[d]pyrimidin-4-yl})amino]acetamide] yielded a pEC50 of 8.4.
Work on `CN(C)CCOc1ccnc(-c2nc3c(c(N(C)CC(=O)Nc4cccc(F)c4)n2)CCC3)c1` [Compound 294, 2-[(2-{4-[2-(dimethylamino)ethoxy]pyridin-2-yl}-5H,6H,7H-cyclopenta[d]pyrimidin-4-yl)(methyl)amino]-N-(3-fluorophenyl)acetamide] yielded a pEC50 of 7.9.
`COc1ccc(NC(=O)CN(C)c2nc(-c3cc4ncsc4cn3)nc3c2CCC3)cn1` [Compound 329, N-(6-methoxypyridin-3-yl)-2-[methyl(2-{[1,3]thiazolo[5,4-c]pyridin-6-yl}-5H,6H,7H-cyclopenta[d]pyrimidin-4-yl)amino]acetamide] gave a pEC50 of 6.8.
With `Cc1ccc(NC(=O)CN(C)c2nc(-c3cc4c(CO)cccc4cn3)nc3c2CCC3)cn1` [Compound 270, 2-({2-[5-(hydroxymethyl)isoquinolin-3-yl]-5H,6H,7H-cyclopenta[d]pyrimidin-4-yl}(methyl)amino)-N-(6-methylpyridin-3-yl)acetamide] the pEC50 was 7.5.
Molecule `COc1ccnc(-c2nc3c(c(N(C)CC(=O)NC4CCOC4)n2)CCC3)c1` (stereo not drawn) [Compound 135, 2-{[2-(4-methoxypyridin-2-yl)-5H,6H,7H-cyclopenta[d]pyrimidin-4-yl](methyl)amino}-N-(oxolan-3-yl)acetamide] has a pEC50 of 7.4.
`CN(CC(=O)NC(C)(C)C)c1nc(-c2cc(-c3cnn(C)c3)ccn2)nc2c1CCC2` [Compound 352, N-tert-butyl-2-[methyl({2-[4-(1-methyl-1H-pyrazol-4-yl)pyridin-2-yl]-5H,6H,7H-cyclopenta[d]pyrimidin-4-yl})amino]acetamide] was tested, and the pEC50 was 7.6.
`CNCCOc1ccnc(-c2nc3c(c(N(C)CC(=O)NC(C)(C)C)n2)CCC3)c1` [Compound 419, N-tert-butyl-2-[methyl(2-{4-[2-(methylamino)ethoxy]pyridin-2-yl}-5H,6H,7H-cyclopenta[d]pyrimidin-4-yl)amino]acetamide] showed a pEC50 of 7.6.
Molecule `COc1ccc(NC(=O)CN(C)c2nc(-c3cc4cccnc4cn3)nc3c2CCC3)cn1` [Compound 244, N-(6-methoxypyridin-3-yl)-2-{methyl[2-(1,7-naphthyridin-6-yl)-5H,6H,7H-cyclopenta[d]pyrimidin-4-yl]amino}acetamide] has a pEC50 of 6.4.
Molecule `CN(CC(=O)NC(C)(C)C)c1nc(-c2cc(OCCO)ccn2)nc2c1CCC2` [Compound 44, N-tert-butyl-2-({2-[4-(2-hydroxyethoxy)pyridin-2-yl]-5H,6H,7H-cyclopenta[d]pyrimidin-4-yl}(methyl)amino)acetamide] has a pEC50 of 7.9.
For `COc1ccc(NC(=O)CN(C)c2nc(-c3cc4scnc4cn3)nc3c2CCC3)cn1` [Compound 304, N-(6-methoxypyridin-3-yl)-2-[methyl(2-{[1,3]thiazolo[4,5-c]pyridin-6-yl}-5H,6H,7H-cyclopenta[d]pyrimidin-4-yl)amino]acetamide], the pEC50 was 6.8.
In the case of `CN(CC(=O)NC(C)(C)C)c1nc(-c2ccc(F)cn2)nc2c1CCC2` [Compound 299, N-tert-butyl-2-{[2-(5-fluoropyridin-2-yl)-5H,6H,7H-cyclopenta[d]pyrimidin-4-yl](methyl)amino}acetamide], the pEC50 is reported as 6.1.
Molecule `Cc1ccc(NC(=O)CN(C)c2nc(-c3ccc(F)cn3)nc3c2CCC3)cn1` [Compound 298, 2-{[2-(5-fluoropyridin-2-yl)-5H,6H,7H-cyclopenta[d]pyrimidin-4-yl](methyl)amino}-N-(6-methylpyridin-3-yl)acetamide] has a pEC50 of 6.1.
With `COc1ccc(N2CCN(c3nc(-c4ccccn4)nc4c3CCC4)CCC2=O)cc1` [Compound 203, 4-(4-methoxyphenyl)-1-[2-(pyridin-2-yl)-5H,6H,7H-cyclopenta[d]pyrimidin-4-yl]-1,4-diazepan-5-one] the pEC50 was 6.3.
For `CN(CC(=O)NC(C)(C)C)c1nc(-c2cc(CCO)ccn2)nc2c1CCC2` [Compound 113, N-tert-butyl-2-({2-[4-(2-hydroxyethyl)pyridin-2-yl]-5H,6H,7H-cyclopenta[d]pyrimidin-4-yl}(methyl)amino)acetamide], the pEC50 was 7.7.
Work on `COc1ccnc(-c2nc3c(c(N(C)CC(=O)N[C@@H]4CCOC4)n2)CCC3)c1` [Compound 372, 2-{[2-(4-methoxypyridin-2-yl)-5H,6H,7H-cyclopenta[d]pyrimidin-4-yl](methyl)amino}-N-[(3R)-oxolan-3-yl]acetamide] yielded a pEC50 of 7.5.
`CN(CC(=O)NC(C)(C)C)c1nc(-c2ccccn2)nc2c1CCC2` [Compound 89, N-tert-butyl-2-{methyl[2-(pyridin-2-yl)-5H,6H,7H-cyclopenta[d]pyrimidin-4-yl]amino}acetamide] showed a pEC50 of 7.3.
Molecule `CN(CC(=O)Nc1ccn(C)n1)c1nc(-c2cc3cn[nH]c3cn2)nc2c1CCC2` [Compound 232, 2-[methyl(2-{1H-pyrazolo[3,4-c]pyridin-5-yl}-5H,6H,7H-cyclopenta[d]pyrimidin-4-yl)amino]-N-(1-methyl-1H-pyrazol-3-yl)acetamide] has a pEC50 of 7.
For `CN(CC(=O)NC1CCCCC1)c1nc(-c2ccccn2)nc2c1CCC2` [Compound 78, N-cyclohexyl-2-{methyl[2-(pyridin-2-yl)-5H,6H,7H-cyclopenta[d]pyrimidin-4-yl]amino}acetamide], the pEC50 was 7.4.
Molecule `C[C@@H](O)COc1ccnc(-c2nc3c(c(N(C)CC(=O)NC(C)(C)C)n2)CCC3)c1` [Compound 366, N-tert-butyl-2-[(2-{4-[(2R)-2-hydroxypropoxy]pyridin-2-yl}-5H,6H,7H-cyclopenta[d]pyrimidin-4-yl)(methyl)amino]acetamide] has a pEC50 of 7.7.
`CN(CC(=O)Nc1ccc(F)cc1)c1nc(-c2cc(OCCO)ccn2)nc2c1CCC2` [Compound 198, N-(4-fluorophenyl)-2-({2-[4-(2-hydroxyethoxy)pyridin-2-yl]-5H,6H,7H-cyclopenta[d]pyrimidin-4-yl}(methyl)amino)acetamide] gave a pEC50 of 8.1.
Molecule `CCN(CC(=O)NC(C)(C)C)c1nc(-c2ccccn2)nc2c1CCC2` [Compound 36, N-tert-butyl-2-{ethyl[2-(pyridin-2-yl)-5H,6H,7H-cyclopenta[d]pyrimidin-4-yl]amino}acetamide] has a pEC50 of 7.3.
`CN(c1nc(-c2cc(OCCO)ccn2)nc2c1CCC2)[C@@H]1CCCN(c2cccc(F)c2)C1=O` [Compound 321, (3R)-1-(3-fluorophenyl)-3-({2-[4-(2-hydroxyethoxy)pyridin-2-yl]-5H,6H,7H-cyclopenta[d]pyrimidin-4-yl}(methyl)amino)piperidin-2-one] showed a pEC50 of 7.1.
